{
  "source": "paper PMC10635799",
  "about": "“Analogs of FTY720 inhibit TRPM7 but not S1PRs and exert multimodal anti-inflammatory effects” (The Journal of General Physiology, 2023)",
  "key": {"[1]": {"test_system": "S1P receptors", "settings": "ref Brinkmann et al., 2002; Zhu et al., 2007; cited from earlier work"}, "[2]": {"test_system": "HeLa cells", "experiment": "LDH-release cytotoxicity assay", "format": "cell-based", "settings": "24 h", "procedure": "WT HeLa cells were plated at a density of 10,000 cells per well into a 96-well tissue culture microplate (3610; Costar). AAL-149, VPC01091.4, or vehicle at 0.1, 1, 5, 10, and 25 μM was added to cells with media for a final volume of 100 μl and incubated for 24 h. LDH release was quantified using a CyQUANT LDH Cytotoxicity Assay (C20300; Thermo Fisher Scientific) and a FlexStation 3 plate reader using SoftMax […] (Molecular Devices)."}, "[3]": {"test_system": "LPS-induced endotoxemia in mice", "experiment": "Lethal dose (LD50) LPS mouse model", "format": "in vivo", "settings": "LD50 LPS + 30 mg/kg"}, "[4]": {"test_system": "RAW 264.7 macrophages", "experiment": "LPS-induced inflammatory gene expression (qRT-PCR) in RAW 264.7 macrophages", "format": "cell-based", "settings": "LPS 1 µg/ml for 3 h", "procedure": "RAW 264.7 macrophages or BMDMs were seeded at a density of 250,000 cells per well into a 12-well tissue culture plate in 1 ml of media and left to incubate overnight. The indicated drug or vehicle control was added to each well, and the plate was agitated and left to incubate for 10 min. The cells were then treated with LPS (1 μg/ml) or an equivalent volume of PBS, agitated, and left to incubate for 3 h. Cells were washed with PBS and then RNA isolation was performed using RNeasy Plus Micro Kit (74134; Qiagen). cDNA was produced using GoScript Reverse Transcriptase ([…]; Promega) and a quantitative PCR was performed using SensiFast SYBR (98020; Bioline) and Bio-Rad CFX Connect thermocycler. Each datum represents an individual, biological replicate that is the mean of duplicate technical replicates. Fold-changes are all reported relative to untreated controls for each experiment and were calculated using the ΔΔCt method, with β2-microglobulin used as the housekeeping gene for each sample. The experiment was performed similarly with BV-2 microglia and alveolar macrophages, except that cells were plated at a density of 100,000 cells per well into a 24-well tissue culture plate with 1 ml of media per well."}, "[5]": {"test_system": "BMDMs", "experiment": "LPS-induced inflammation assay in WT and TRPM7 KO BMDMs (qRT-PCR)", "format": "cell-based, mice", "procedure": "All cells were cultured at 37°C with 5% CO2. HEK 293T cells (CRL-3216; ATCC), HeLa cells (CCL-2; ATCC), RAW 264.7 macrophages (TIB-71; ATCC), and BV-2 microglial cells (ABC-TC212S; AcceGen Biotech) were cultured in DMEM (11995065; Gibco) with 10% fetal bovine serum (FBS; Avantor Seradigm Premium Grade Fetal Bovine Serum 97068-085). FBS was heat-inactivated prior to use at 56°C for 30 min. BMDMs were isolated and cultured as previously described ([Schappe et al., 2018]) and differentiated into mature macrophages over 7 d through culture in BMDM media (RPMI 1640, 10% FBS, and 20% L-929 culture supernatant; Gibco).\nRAW 264.7 macrophages or BMDMs were seeded at a density of 250,000 cells per well into a 12-well tissue culture plate in 1 ml of media and left to incubate overnight. The indicated drug or vehicle control was added to each well, and the plate was agitated and left to incubate for 10 min. The cells were then treated with LPS (1 µg/ml) or an equivalent volume of PBS, agitated, and left to incubate for 3 h. Cells were washed with PBS and then RNA isolation was performed using RNeasy Plus Micro Kit (74134; Qiagen). cDNA was produced using GoScript Reverse Transcriptase (A5004; Promega) and a quantitative PCR was performed using SensiFast SYBR (98020; Bioline) and Bio-Rad CFX Connect thermocycler. Each datum represents an individual, biological replicate that is the mean of duplicate technical replicates. Fold-changes are all reported relative to untreated controls for each experiment and were calculated using the ∆∆Ct method, with β2-microglobulin used as the housekeeping gene for each sample. The experiment was performed similarly with BV-2 microglia and alveolar macrophages, except that cells were plated at a density of 100,000 cells per well into a 24-well tissue culture plate with 1 ml of media per well."}, "[6]": {"test_system": "alveolar macrophages", "experiment": "LPS-induced cytokine expression in primary alveolar macrophages (qRT-PCR)", "format": "cell-based, mouse", "settings": "10 µM pretreatment, LPS 1 µg/ml for 3 h", "procedure": "Alveolar macrophages were isolated and cultured from wildtype (WT) C57BL/6 mice (Strain #000664; Jackson Laboratory) using an established protocol ([Nayak et al., 2018]). […] Using a 5-ml syringe filled with 3 ml of bronchoalveolar lavage buffer (“BAL buffer”: Ca^2+- and Mg^2+-free PBS + 1 mM EDTA), the lungs were first filled with ∼2 ml of BAL buffer, then flushed five times in a cycle involving the installation and removal of 1 ml of buffer. The collected BAL fluid was pooled and the cyclical perfusion step was repeated with fresh buffer until a total of ∼10 ml of BAL fluid was collected. BAL fluid with gross evidence of blood contamination was discarded. A pellet was obtained through centrifugation at 500 × g for 5 min, and contaminating red blood cells were lysed by resuspending cells for 5 min in 5 ml of ice-cold ACK Lysis buffer (A1049201; Gibco). The cells were then pelleted at 500 × g for 5 min, resuspended in alveolar macrophage culture media (DMEM supplemented with 10% FBS, 20% L-929 culture supernatant, 1 mM sodium pyruvate, 10 mM HEPES, and 1× penicillin/streptomycin), and plated onto untreated tissue culture dishes for 24 h. The media was exchanged prior to use to remove unattached cells.\nRAW 264.7 macrophages or BMDMs were seeded at a density of 250,000 cells per well into a 12-well tissue culture plate in 1 ml of media and left to incubate overnight. The indicated drug or vehicle control was added to each well, and the plate was agitated and left to incubate for 10 min. […] Cells were washed with PBS and then RNA isolation was performed using RNeasy Plus Micro Kit (74134; Qiagen). cDNA was produced using GoScript Reverse Transcriptase (A5004; Promega) and a quantitative PCR was performed using SensiFast SYBR (98020; Bioline) and Bio-Rad CFX Connect thermocycler. […] Fold-changes are all reported relative to untreated controls for each experiment and were calculated using the ∆∆Ct method, with β2-microglobulin used as the housekeeping gene for each sample. […]"}},
  "data": [
    {"smiles": "CCCCCCCCc1ccc([C@@H]2CC[C@@](N)(CO)C2)cc1", "note": "[VPC01091.4, ((1S,3R)-1-amino-3-(4-octylphenyl)cyclopentyl)methanol]", "values": [
      {"measurement": "Activity at S1P receptors", "setting": "[1]", "value": "not active"},
      {"measurement": "Cytotoxicity (LDH release)", "setting": "[2]; 25 μM, compared with positive control of 100% cytotoxicity", "value": 4, "unit": "%"},
      {"measurement": "Cytotoxicity (LDH release)", "setting": "[2]; dosages up to 10 µM", "value": "did not result in any significant cytotoxicity"},
      {"measurement": "Mean cytotoxicity (LDH release)", "setting": "[2]; each dose up to 25 µM", "value": "< 5", "unit": "%"},
      {"measurement": "Survival rate", "setting": "[3]; 132 h, LPS-only 50%, control 100%, P = 0.127", "value": 83.33, "unit": "%"},
      {"measurement": "Clinical scores (symptoms)", "setting": "[3]; vs LPS only, 132 h", "value": "significantly reduced at a number of timepoints"},
      {"measurement": "Weight change from baseline", "setting": "[3]; vs LPS only, after first 48 h", "value": "recovering at a higher nadir and at an earlier timepoint"},
      {"measurement": "LPS-stimulated IL-1β gene expression", "setting": "[4]; 5 µM pretreatment", "value": "almost completely abrogated"},
      {"measurement": "LPS-stimulated IL-1β gene expression", "setting": "[4]; 10 µM pretreatment", "value": "almost completely abrogated"},
      {"measurement": "LPS-induced IL-1β expression in TRPM7 KO BMDMs", "setting": "[5]; 10 µM VPC4, 10 µM AAL-149, 5 µM FTY720, 30 μM NS8593", "value": "able to suppress"},
      {"measurement": "LPS-induced IL-6 expression in Trpm7 KO BMDMs", "setting": "[5]; 10 µM, effect on top of genetic deletion", "value": "additive effect"},
      {"measurement": "LPS-induced CCL4 expression", "setting": "[6]", "value": "significantly suppressed"},
      {"measurement": "LPS-induced IL-1β expression", "setting": "[6]", "value": "significantly suppressed"},
      {"measurement": "LPS-induced TNFα expression", "setting": "[6]", "value": "significantly suppressed"}
    ]}
  ]
}
